# Reference: US10472418B2, “Composition for preventing or treating lung cancer comprising antibody against CD66C and chemotherapeutic agent” (DINONA, priority 2016, dated 2019)
# Tested on: anti-CD66c antibody, AP11
# Assay: Inhibition of AP11 binding on A549 cells by recombinant antigen, flow cytometry
# Conditions: 10, 50 and 100 μg recombinant antigen conjugated with AP11 before A549 cells
# Description: In order to confirm whether the purified recombinant antigen (CD66c-HuIgFc) in the above Example 1-3 acts as CD66c antigen, inhibition of conjugation of anti-CD66c antibody, AP11, on the surface of A549 cells by the above recombinant antigen was confirmed by flow cytometry, and the result is shown in FIG. 6.
# Specifically, after conjugating 0, 10, 50 and 100 μg of the above recombinant antigen with AP11 antibody for 30 min at 4° C., it was added to A549 cells and reacted for 30 min at 4° C., added with 3 ml of PBS, centrifuged for 3 min at 1500 rpm and washed. To confirm the conjugated antibody, secondary antibody, goat anti-Mouse IgM FITC (DiNonA) was diluted 200 times, added, reacted for 15 min at 4° C., washed as above with 3 ml of PBS and measured by flow cytometry.
substance,measurement,value
CD66c-HuIgFc: recombinant antigen linking CD66c 34~340 aa region and human immunoglobulin Fc region CH2-CH3,blocking of anti-CD66c mAb (AP11) binding to A549 cells,blocking was observed proportional to the treated amount
